Measurements as given in patent US20220354818A1, “METHODS FOR TREATING BRAIN INJURY OR COGNITIVE DYSFUNCTION BY PHARMACOLOGICAL ENHANCMENT OF M-TYPE POTASSIUM ION CURRENTS IN NEURONS” (Advanced Neuroresearch Therapeutics LLC, priority 2019, published 2022).
Entries after “also recorded” stand apart in the source; their conditions may differ.

Assays:
[1] = system: mice subjected to CCCI, subthreshold pilocarpine; assay: Pilocarpine-induced seizure susceptibility after CCCI; format: in vivo, mouse; conditions: three subthreshold pilocarpine doses on fifth day after CCCI; RTG 1.2 mg/kg i.p. 30 min post-TBI
Description: Pilocarpine is a cholinomimetic drug widely used as a chemo-convulsant in animal models to induce status epilepticus. To minimize pilocarpine-induced peripheral cholinergic effects and mortality, animals were pretreated with scopolamine methyl nitrate (i.p. 1 mg/kg; MP Biomedicals) 30 minutes prior to pilocarpine injection. Both drugs were diluted in sterile 0.9% (w/v) saline. Immediately after pilocarpine injection, cortical activity was monitored for 24 hours by video/EEG recording.

c-Fos = c-Fos expression (FosTRAP mice) in hippocampal CA1 after blunt TBI; format: in vivo, mouse; conditions: tamoxifen 30 days after single blunt TBI; acute RTG treatment
Description: Transgenic “FosTRAP” mice were used to study neuronal activity in sub-cortical regions following blunt TBI (the CCCI model as described above). These mice express the fluorescent protein, tdTomato, under the control of the neuronal promoter c-Fos, an “early intermediate gene” transcriptional factor that correlates well with heavy neuronal activity. Accordingly, whenever neurons express c-Fos, tdTomato is also expressed, allowing for an optical reporter of prior neuronal activity.
Because these transgenic mice express tdTopmato via the tamoxifen-inducible Cre/IoxP system, mice were injected (i.p.) with tamoxifen (75 mg/kg) 30 days after a single blunt TBI (i.e., CCCI), and samples were collected 5 days after injection.
Slices (200 μm) of each collected sample were infused with 4% (w/v) PFA for 10 minutes at RT, washed 5× in PBS and blocked with 8% (v/v) donkey serum (Sigma-Aldrich) diluted in PBS, 0.1% (v/v) Triton X-100 (Sigma-Aldrich), and 0.1% (v/v) Tween 20 (Thermo Fisher Scientific). […] A Nikon Eclipse FN1 microscope with 10× and 40× Plan Fluor objectives was used for detection of fluorescence. […] Cell count was obtained by non-biased automatic quantification with ImageJ. […] ROIs were determined automatically using the “analyze particles” function of ImageJ, with size set to 200-8000 and circularity set to 0.00-1.00.

neurons = assay: Fluoro Jade B staining of neuronal cell death after CCCI; format: in vivo, mouse; conditions: six days after CCCI; RTG 30 minutes post-TBI
Description: Flouro Jade B (FJB) staining was performed to assay neuronal cell death histologically and detect the degree of neurodegeneration six days after CCCI. Staining was performed as previously described.
Six days after CCCI, mice were euthanized via transcardial perfusion with PBS followed by 4% (w/v) paraformaldehyde (PFA). Brains were removed, post-fixed overnight in 4% PFA (Electron Microscopy Sciences), transferred into 30% (w/v) sucrose in PBS and kept at 4° C. for 3 days. […]
Ipsilateral cortical images (fluorescence images of FJB and counterstained DAPI) were taken by a Nikon Eclipse Ti with camera coolSNAP HQ^2 (confocal) microscope using a 20× objective (N.A. 0.75). Fluorescence excitation-emission for Fluoro Jade and DAPI were 470/40-500 and 350/50-460, respectively.
Cell count was obtained by nonbiased automatic quantification with ImageJ/FIJI (NIH, USA) particle analysis. […] After background subtraction and image threshold (1.05%), FIB positive cells were detected using the “analyze particles” (size: 20-100, circularity: 0.00-1.00) function of ImageJ. These parameters determined the pixel size and circularity of the acceptable ROIs and were used to identify cell bodies automatically.

M-channels = assay: Voltage dependence of M-channels
[2] = system: C57BL/6J mice subjected to controlled closed cortical impact (CCCI); assay: Post-traumatic seizures after CCCI blunt TBI, video/EEG monitoring; format: in vivo, mouse; conditions: RTG 1.2 mg/kg i.p. 30 minutes post-TBI, video/EEG three days starting 24 hours after injury
Description: Male and female mice were used for all experiments performed, except for GFAP, Iba1 and Fluro-Jade B histology experiments and for PSVue794 and Evans Blues imaging.
Animals were divided randomly among cohorts so that each cage included animals from all treatments.
The CCCI model was used to generate reproducible moderate blunt brain injury. This model has the advantages of producing focal contusion in which the skull remains intact. CCCI can most closely simulate blunt-head traumas resulting from falls, physical violence, or motor vehicle accidents and particularly in rodent models often produces spontaneous seizures within 24 hours.
A single trauma per mouse was employed. CCCI was delivered by a pneumatic impact device (Leica Biosystems) following a protocol previously published. A cylindrical probe of 5 mm diameter was used to deliver a calibrated impact to the skull, 1 mm depth over the right parietal cortex and a small portion of the caudal end of the right frontal cortex, at a velocity of 4.5 m/s to produce a moderate TBI. […]
To quantify seizure frequency and determine seizure susceptibility, mice of each cohort were implanted with electroencephalogram (EEG) electrodes 24 hours after CCCI or Sham. […]
Computer-assisted cortical EEGs was recorded and reviewed for the presence of seizures and epileptiform spikes. […] Detected events were visually confirmed by blinded experimenters.

## CCOC(=O)Nc1ccc(NCc2ccc(F)cc2)cc1N [RTG, 2-amino-4-(4-fluorobenzylamino)-1-ethoxycarbonylaminobenzene]
[1]
  pilocarpine-induced abnormal spike activity: significant reduction of pilocarpine-induced abnormal spike activity
c-Fos
  c-Fos expression, hippocampal CA1: significantly less c-Fos than the TBI cohort
neurons
  Fluoro Jade B labeling of neurons (neuronal death): significantly higher FJB staining as compared to TBI+RTG cortical slices; also recorded: labeling of brain neurons by FJB was minimal
M-channels
  voltage dependence of M-channels: shifting the voltage dependence of M-channels towards more negative potentials
[2]
  mice displaying post-traumatic seizures: no animal treated with RTG post-TBI displayed seizures and zero
